One series concerns the target T1, NAT10 (Homo sapiens, UniProt Q9H0A0).
T1 construct: depletion of total NAT10 protein in SiHa (human) and U14 (murine) CCa cell lines; endogenous in cells; host or cells: SiHa (human cervical cancer cell line)
T1 sequence (Q9H0A0 1-1025): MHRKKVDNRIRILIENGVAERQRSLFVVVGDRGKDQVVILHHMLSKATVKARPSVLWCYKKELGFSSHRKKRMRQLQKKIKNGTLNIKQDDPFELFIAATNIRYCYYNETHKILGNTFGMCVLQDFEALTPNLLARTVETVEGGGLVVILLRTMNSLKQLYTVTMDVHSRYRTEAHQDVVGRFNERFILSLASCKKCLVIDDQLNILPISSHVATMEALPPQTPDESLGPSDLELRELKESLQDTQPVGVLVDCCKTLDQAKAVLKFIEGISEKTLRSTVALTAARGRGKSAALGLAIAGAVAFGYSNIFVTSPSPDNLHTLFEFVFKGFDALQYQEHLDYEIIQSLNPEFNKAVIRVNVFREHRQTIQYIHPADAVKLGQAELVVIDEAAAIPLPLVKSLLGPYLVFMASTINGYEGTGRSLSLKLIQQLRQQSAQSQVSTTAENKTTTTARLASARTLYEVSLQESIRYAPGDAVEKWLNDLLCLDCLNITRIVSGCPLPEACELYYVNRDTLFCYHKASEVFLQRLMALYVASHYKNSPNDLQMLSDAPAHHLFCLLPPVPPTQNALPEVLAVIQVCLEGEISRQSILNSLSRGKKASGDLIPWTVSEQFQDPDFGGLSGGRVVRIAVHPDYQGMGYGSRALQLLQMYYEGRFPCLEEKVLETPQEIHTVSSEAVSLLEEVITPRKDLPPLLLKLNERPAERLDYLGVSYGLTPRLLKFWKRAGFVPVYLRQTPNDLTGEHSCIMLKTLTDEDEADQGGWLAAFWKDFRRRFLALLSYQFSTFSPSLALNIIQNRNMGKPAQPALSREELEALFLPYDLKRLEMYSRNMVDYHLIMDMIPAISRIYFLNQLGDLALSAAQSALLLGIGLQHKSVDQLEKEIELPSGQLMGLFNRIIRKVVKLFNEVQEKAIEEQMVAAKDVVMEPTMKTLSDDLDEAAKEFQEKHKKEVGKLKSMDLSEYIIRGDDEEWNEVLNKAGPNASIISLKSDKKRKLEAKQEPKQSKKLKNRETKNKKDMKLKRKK
Nature of the series: NAT10 degradation in SiHa cells, Western blot. Format: cell-based. The method, then: The human CCa cell line SiHa and the normal epithelial foreskin fibroblast line HFF-1 were purchased from the Cell Bank of the Chinese Academy of Sciences. Additionally, murine cervical carcinoma cell line U14 (RRID:CVCL_9U56) was purchased from Boster Company. HFF-1 and U14 cells were cultured in Dulbecco’s modified Eagle’s medium (DMEM) (Gibco, USA) supplemented with 10% heat-inactivated fetal bovine serum (FBS; Gibco, USA), while SiHa cells were incubated in RPMI 1640 medium (Gibco, USA) in a humid atmosphere with 5% CO2 at 37 °C. For hypoxia exposure, the cells were incubated in a sealed culture tank containing 5% CO2 and 0.1% O2 (MGC, Japan) for 36 h.
RIPA lysis buffer (Beyotime, China) mixed with 1% protease inhibitor (Sigma, US) was added to the cells, and a sample of total protein was obtained and then loaded onto an 8% or 12% polyacrylamide gel. The gel was placed in a buffer solution, and an electric current was applied. The separated proteins were subsequently transferred from the gel onto a PVDF membrane. Next, the membrane was blocked with 5% milk for 1 h to prevent nonspecific antibody binding. The membranes were subsequently incubated with anti-NAT10 (1:1000, Abcam, USA), anti-PD-L1 (1:1000, Proteintech, China), anti-HIF-1α (1:1000, Abmart, China), and anti-β-tubulin (1:1000, Proteintech, China) primary antibodies for 12 h. Afterward, the membrane was sequentially washed with 1× TBST and incubated for 1 h with an antimouse secondary antibody (1:6000, Elabscience, China) or antirabbit secondary antibody (1:6000, Elabscience, China). The target proteins were detected via chemiluminescence with a ChemiDoc MP Imaging System (Bio-Rad, US).

A further series relates to NP1192^Resist SiHa cells. In words: IC50 and resistance index in NP1192-resistant SiHa cells (CCK-8). Format: cell-based, human. The protocol: We generated Remodelin-resistant (Remodelin^Resist SiHa) and NP1192-resistant (NP1192^Resist SiHa) SiHa CCa cell lines by applying a stepwise dose escalation strategy, as previously described in the literature. To quantitatively assess resistance, we calculated the resistance index for each subline following the established methodologies. Briefly, 3000 cells per well were seeded in 96-well plates and treated with increasing concentrations of Remodelin or NP1192 (0, 10, 50, 100, and 150 μM) for 24 h. Following treatment, 10 μL of CCK-8 reagent was added to each well and incubated for an additional 2 h. Absorbance at 490 nm was measured, and the IC50 values were calculated using GraphPad Prism 9.0. The RI was defined as the ratio of the IC50 in resistant cells to that in parental cells.

The next series concerns normal organoids. Nature of the series: Normal organoids exposed to NP1192. Format: cell-based, human. Particulars: following NP1192 exposure. The method, then: Organoid culture was performed according to previously established protocols. Briefly, we procured patient-derived tissue samples provided and technically manipulated by Accurate International Biotechnology Co., Ltd. Subsequently, these samples were subjected to mechanical and enzymatic dissociation to disaggregate the tissue into single cells or small clusters, while preserving cellular integrity. Following this initial step, the isolated cells or tissue fragments were embedded within a 3D ECM scaffold, such as Matrigel or collagen. The ECM scaffold served as a supportive substrate, promoting cellular self-organization and mimicking native tissue architecture. Additionally, a precisely formulated cocktail of growth factors, cytokines, and signaling molecules tailored to the specific tissue of interest was meticulously formulated and added to the culture medium to facilitate organoid growth and maintenance.

pIC50: −log10 of the molar value.

Consider `N#Cc1ccc(-c2csc(N(CCCCCCC(=O)N3CCN(c4cccc5c4C(=O)N(C4CCC(=O)NC4=O)C5=O)CC3)N=C3CCCC3)n2)cc1` (centres unmarked) [NP1192], for which the NAT10 degradation rate on NAT10 (SiHa cells, 1.25 μM, 36 h) was determined as 28%; at NAT10 (SiHa cells, 2.5 μM, 36 h) it was 32%; at NAT10 (SiHa cells, 5 μM, 36 h), 40%; at NAT10 (SiHa cells, 10 μM, 36 h), 43%; at NAT10 (SiHa cells, panel TP1–32 at the same time and concentration, Figure 1E), 71%. On NAT10 (SiHa cells, 20 μM, 36 h), the “NAT10 degradation rate (maximum)” value is recorded as 69%. On NAT10 (SiHa cells, after 24 h), this compound gave an NAT10 degradation of 20%. In addition, the “hook effect in NAT10 degradation” value at NAT10 (concentrations as high as 20 μM) is listed as “did not exhibit the classical hook effect”. Besides, in the series on NP1192^Resist SiHa cells (76.2/7.814), the “resistance index (RI = IC50 resistant/parental SiHa)” value is reported as 9.75. Moreover, the pIC50 (commonly the IC50 on a negative log10 scale, so that one unit is a factor of ten) in the series with NP1192^Resist SiHa cells (Homo sapiens, NP1192^Resist SiHa cells) was 4.12. Also, the “architecture and cellular integrity of normal organoids” value in the series with normal organoids was “remained unaltered”.
